Assay results reported in patent publication US20260207459A1, “SUGARCANE DERIVED SEMI-SYNTHETIC COSMETIC INGREDIENTS, METHODS OF PRODUCTION THEREOF, AND PERSONAL CARE PRODUCTS DERIVED THEREFROM” (AMYRIS, INC., priority 2023, published 2026).

How the values were obtained:
[1] = Viscosity (capillary viscometer / rheometer); type: physicochemical; settings: for Viscosity: at 25° C., ARES G2 rheometer
Experimental: The viscosity, gloss, surface tension, and wetting were also calculated for farnesyl HH-farnesoate (Compound (I-C)) and the results are shown in Table 4. The properties of Table 4 were determined as follows: Measurement of dynamic viscosity using rheometer: Using a ARES G2 rheometer, the viscosity of the samples were measured using 25 mm plate clamps with a gap size about 0.5 mm, strain 1%, frequency range 1-500 rad/s, and a temperature of about 25° C.

[2] = Surface tension by pendant drop; type: physicochemical; settings: for surface tension (comparison in words): pendant drop shape analysis, FIG. 4; for Surface tension: Kruss DSA 100, pendant drop
Experimental: The surface tension of a material in beauty and personal care (B&PC) ingredients accounts for many of the sensory attributes. The lower the surface tension of a material the better is the material's spreadability, slip, glide, and lubricity.
(§1) Example 9: Wetting on Hydrophobic-PTFE and Hydrophilic-Glass Slide Substrates by Static Contact Angle and Surface Tension by Pendant Drop Shape Analysis
(§2) The wetting values (on hydrophobic-PTFE and on hydrophilic-glass slides) were measured and compared for amodimethicone, LEX FEEL (diheptyl succinate), non-redistilled HDD, distilled HDD, PROTOL (mineral oil), RUDOL (mineral oil), ERVOL (mineral oil), and squalane. […] The lower surface tension of HDD can be translated to better spreading and glide in formulations and position it comparably with mineral oils with similar viscosities and LEX FEEL 350.
(§3) Measurement of surface tension of liquids: A Kruss DSA 100 was employed using the pendant drop method. Prior to the measurement, surface tension of the water was tested as a standard with an expected surface tension of 72 mN/m at 25° C. Then, a drop of the tested liquid was pushed through a 0.514 mm needle of a micro syringe and the surface tension was calculated using inbuilt software. The result of the measurement is an average of at least 3 measurements. Static contact angle measurement (wetting): To measure the contact angle, a Kriss DSA 100 and the sessile drop method were used. A glass substrate was used for the measurements. To measure the contact angle on the substrate, a single drop was deposited onto the substrate from a 0.514 mm needle of a micro syringe. Then, drop shape and contact angle were analyzed using inbuilt software. The result of the measurement was the average of at least 3 measurements. To ensure that the substrate is prepared well, it was cleaned with non-polar hexane, THF, and polar acetone. To ensure that the glass substrate was clean, a drop of water was deposited on its surface. Gloss measurement: To measure the gloss, 2 mL of material was drawn downed on a glass substrate. Then glass was placed over a black matte surface and gloss was measured with a BYK micro-TRI-gloss glossmeter.

[3] = In vitro skin permeation, Franz diffusion cell system; type: in vitro ADME, human; settings: for Total accumulated dose passed through the skin into the reservoir / Total accumulated dose in Dermis / Total accumulated dose in Epidermis: 1.0 wt % in squalane, 5 μl, nominal 90.91 μg/cm^2; for penetration to the dermis compared with THDA: 24 hour time point, cadaver skin; for Total accumulated dose in Dermis / Total accumulated dose in Epidermis: measured at 24 hours
Experimental: The rate and extent of in vitro skin permeation of compounds tetrahexydecyl ascorbate (THDA, shown below), di(hexahydrofarnesyl) ascorbate (Compound (II-A)), tri(hexahydrofarnesyl) ascorbate (Compound (II-B)), and tetra(hexahydrofamesyl) ascorbate (Compound (II-C)) was measured into and through cadaver skin using a Franz diffusion cell system. THDA is a Vitamin C ester commonly used in cosmetic formulations.
Flux was measured over a period of 24 hours after application of the formulations. At the end of the 24 hour study, the skin was washed, tapestripped and split into epidermal and dermal compartments. The compounds were then extracted from the skin compartments and the compound concentration was measured in these compartments along with the receptor fluid aliquots. The formulations were chosen to determine the effect of the formulation composition and compound concentration on the rate of delivery of the compounds into and through the skin. In vitro skin permeation measurements with Franz-type diffusion cells provide data that is informative relative to in vivo performance.
To prepare the formulations, the compounds were weighed in a glass vial into which the squalane was added. The ending solution was then vortexed for 1 minute, followed by sonication for 30 minutes.
Intact human cadaver skin was purchased from Science Care. The skin tissue was dermatomed by the tissue bank to a thickness of some 250-500 μm and shipped frozen on dry ice. Upon receipt of the donor skin, the skin pieces were stored at −20° C. until used. Prior to use, the skin pieces were removed from the freezer and allowed to thaw fully at ambient temperature.
The following equipment was used during the course of the study: • 1.) Diffusion cells. 24 diffusion cells with 3.3 ml receptor volume and a […] receptor fluid exposure surface area. • 2.) Stirring Dry Block Heaters. Reacti-Therm #18823 stirring dry block heaters were used to maintain the receptor fluid at 32±0.5° C. with constant stirring throughout the study. • 3.) The analysis was carried out with an Agilent 1260 HPLC with a G6120 MS detector and a G4212B diode array detector.
After the analytical testing was complete, the samples were analyzed using Chemstation software. The areas under the curve (“AUCs”) of the compound peaks were recorded and converted to jig/ml values using a calibration curve developed from the calibration standards' AUC values and known concentration values. The concentrations were then multiplied by the receptor volume (3.3 mL) and divided by the surface area of the skin exposed to the receptor fluid (0.55 cm^2) for an end cumulative amount in μg/cm^2.
For receptor fluid time points greater than 4 hrs, this μg/cm^2 value was corrected for the sample aliquot volumes which were removed to compensate for the dilution caused by replacing the sample volume with fresh buffer solution. As an example, for the second time point at 8 hrs, the dilution factor (300 μl aliquot/3.3 ml receptor volume or 1/11) is multiplied by the g/cm^2 value calculated for the 4 hr time point, the result of which is then added to the μg/cm^2 concentration which is calculated using the 8 hr AUC value.
The receptor fluid consisted of phosphate buffered saline at pH 7.4, sourced from Quality Biologicals, with 0.01 wt % NaN3 (added as a preservative), and lwt % Brij 020 (added as a solubilizing agent). The solubility of the compounds in the receptor fluid was determined to be sufficient to maintain sink conditions throughout the study. After mixing the receptor fluid, the receptor fluid was degassed, filtered through a ZapCap CR 0.2 μm membrane under vacuum, and stirred for an additional 20 minutes under vacuum.
Glass FDCs with a 3.3 ml receiver volume and 0.55 cm^2 diffusional area were used. Once the skin was defrosted and washed as described above the FDCs were prepared as follows: • 1. The receptor wells were filled with degassed receptor fluid using a pipette. • 2. […]

[4] = Static contact angle (wetting) on glass / PTFE; type: physicochemical; settings: for Water contact angle: static contact angle on glass
Experimental: Static water contact angle is another indication of material spreading and wetting.
as §1, §2, §3

[5] = Gloss measurement (glossmeter); type: physicochemical
Experimental: Gloss is a very desirable property in B&PC products. Gloss was measured at 20 deg.
Tested dimethicones have the lowest gloss.
as §3

## hexahydrofarnesene dimer [HDD Glycotech]
[1]
  viscosity by rheology: 68.2
[2]; listed as Non-redistilled HDD
  surface tension (comparison in words): highest values of surface tension

## CC(C)CCCC(C)CCCC(C)CC(=O)OC[C@H](OC(=O)CC(C)CCCC(C)CCCC(C)C)C1OC(=O)C(O)=C1OC(=O)CC(C)CCCC(C)CCCC(C)C (stereo partly drawn) [Compound (II-B), (1S)-1-(4-hydroxy-5-oxo-3-((3,7,11-trimethyldodecanoyl)oxy)-2,5-dihydrofuran-2-yl)ethane-1,2-diyl bis(3,7,11-trimethyldodecanoate)]
[3]; 4 hrs
  Total accumulated dose passed through the skin into the reservoir: 0.00 μg/cm^2
[3]; 8 hrs
  Total accumulated dose passed through the skin into the reservoir: 0.00 μg/cm^2
[3]
  penetration to the dermis compared with THDA: better penetration to the dermis
  Total accumulated dose in Dermis: 1.37 μg/cm^2
  Total accumulated dose in Epidermis: 4.41 μg/cm^2
[3]; 24 hrs
  Total accumulated dose passed through the skin into the reservoir: 0.00 μg/cm^2

## CC(C)CCCC(C)CCCC(C)CCCCC(C)CCCC(C)CCCC(C)C (centres unmarked) [Squalane, squalane, reference compound]
[1]
  Viscosity @20 C., cP: 23.3 cP
[2]
  Surface tension, mN/m: 26.1 mN/m
[4]
  Water contact angle: 30.9 °
[5]
  gloss value (comparison in words): somewhat lower gloss value
[5]; measured at 20 deg
  Gloss: 65.7

## hexahydrofarnesene dimer [HDD]
[1]
  Viscosity @20 C., cP: 61.5 cP
  viscosity by rheology: 61.5
[2]
  Surface tension, mN/m: 24.5 mN/m
[2]; listed as Distilled HDD
  surface tension (comparison in words): lower surface tension value
[4]
  Water contact angle: 19.8 °
[5]; measured at 20 deg
  Gloss: 70.6

## CCCCCCCCC(CCCCCC)C(=O)OCC(OC(=O)C(CCCCCC)CCCCCCCC)C1OC(=O)C(OC(=O)C(CCCCCC)CCCCCCCC)=C1OC(=O)C(CCCCCC)CCCCCCCC (centres unmarked) [Tetrahexydecyl ascorbate, tetrahexydecyl ascorbate, reference compound]
[3]; 4 hrs
  Total accumulated dose passed through the skin into the reservoir: 0.00 μg/cm^2
[3]; 8 hrs
  Total accumulated dose passed through the skin into the reservoir: 0.00 μg/cm^2
[3]; 24 hrs
  Total accumulated dose passed through the skin into the reservoir: 0.00 μg/cm^2
[3]
  Total accumulated dose in Dermis: 0.18 μg/cm^2
  Total accumulated dose in Epidermis: 25.78 μg/cm^2

## CC(C)CCCC(C)CCCC(C)CCOC(=O)CC(C)CCCC(C)CCCC(C)C (centres unmarked) [Compound (I-C), 3,7,11-trimethyldodecyl 3,7,11-trimethyldodecanoate]
[1]
  Viscosity: 30 ± 10 cP at 25 °C
[1]; listed as Compound I-C
  Viscosity: 30±10 cP
[2]
  Surface tension: 27.6 ± 0.2 mN/m
[2]; listed as Compound I-C
  Surface tension: 27.6±0.2 mN/m
[4]; sessile drop on glass substrate
  Wetting (static contact angle): 18.5°
[5]; BYK micro-TRI-gloss glossmeter, drawn down on glass
  Gloss: 69.4 ± 2.7

## CC(C)CCCC(C)CCCC(C)CC(=O)OC[C@H](OC(=O)CC(C)CCCC(C)CCCC(C)C)C1OC(=O)C(OC(=O)CC(C)CCCC(C)CCCC(C)C)=C1OC(=O)CC(C)CCCC(C)CCCC(C)C (stereo partly drawn) [Compound (II-C), 2-((1S)-1,2-bis((3,7,11-trimethyldodecanoyl)oxy)ethyl)-5-oxo-2,5-dihydrofuran-3,4-diyl bis(3,7,11-trimethyldodecanoate)]
[3]; 4 hrs
  Total accumulated dose passed through the skin into the reservoir: 0.05 μg/cm^2
[3]; 8 hrs
  Total accumulated dose passed through the skin into the reservoir: 0.03 μg/cm^2
[3]; 24 hrs
  Total accumulated dose passed through the skin into the reservoir: 0.04 μg/cm^2
[3]
  Total accumulated dose in Dermis: 0.01 μg/cm^2
  Total accumulated dose in Epidermis: 1.02 μg/cm^2

## CC(C)CCCC(C)CCCC(C)CC(=O)OC[C@H](OC(=O)CC(C)CCCC(C)CCCC(C)C)C1OC(=O)C(O)=C1O (stereo partly drawn) [Compound (II-A), (1S)-1-(3,4-dihydroxy-5-oxo-2,5-dihydrofuran-2-yl)ethane-1,2-diyl bis(3,7,11-trimethyldodecanoate)]
[3]; 4 hrs
  Total accumulated dose passed through the skin into the reservoir: 0.17 μg/cm^2
[3]; 8 hrs
  Total accumulated dose passed through the skin into the reservoir: 0.18 μg/cm^2
[3]
  penetration to the dermis compared with THDA: better penetration to the dermis
  Total accumulated dose in Dermis: 0.85 μg/cm^2
  Total accumulated dose in Epidermis: 9.28 μg/cm^2
[3]; 24 hrs
  Total accumulated dose passed through the skin into the reservoir: 0.20 μg/cm^2
